System: Phosphodiesterase II (calf spleen phosphodiesterase, CSP)
Test: Phosphodiesterase II (CSP) controlled exonuclease digestion monitored by MALDI-TOF MS
Type: in vitro ADME
Conditions: 37° C.; for time for CSP digestion to reach the modified nucleotides: 5′-3′ exonuclease; for degradation of the remaining modified fragment by CSP: after 4 h, fragment starting at modified nucleotides
Protocol: Phosphodiesterase II controlled digestion for ODNs sequencing. The controlled digestion procedure followed slight modification of the reported protocol (Chou et al., 2000). ODN ([…] in 5 μL water) was mixed with phosphodiesterase II (calf spleen phosphodiesterase, CSP) solution (5 milliunits in 5 μL water) and ammonium citrate water solution (1 μL, 50 g/L). After vortex mixing and centrifuge, the mixture was incubated at 37° C. Aliquots (1 μL) were removed after 0.5, 2, 4, 9, 15, 20, 30, 40, 60, 240 min and quickly mixed with trihydroxyacetophenone (THAP, as MALDI-TOF matrix) solution (1 μL, 30 mg in 1 mL methanol) before being placed in dry ice to quench the reaction. All digestion aliquots were spotted on a target and analyzed by MALDI-TOF MS.
To locate the modified regions of nylon nucleic acid, controlled exonuclease digestion was performed on the template-synthesized nylon nucleic acid 3b and 8b with DNA 1 as a control, and monitored as a function of time. Phosphodiesterase II (calf spleen phosphodiesterase, CSP) served as the exonuclease, cleaving from the 5′-terminus. […] In 2 min, the digestion of 3b reached modified nucleotides UnUc. It took 4 min for the digestion of 8b to move to the modified region. […] It has been reported that CSP is inhibited by sugar-modified nucleotides (Pieles et al., 1993) and not by base-modified nucleotides, so these CSP digestion results are consistent with the 2′-ribose modification present in nylon nucleic acids. Furthermore, the sequence information about modified nucleotides from the 5′-end within nylon nucleic acids were also verified.

| Substance | DNA fragments remaining after CSP digestion (in 1 h) | time for CSP digestion to reach the modified nucleotides | degradation of the remaining modified fragment by CSP |
| --- | --- | --- | --- |
| 5′-GCATAGTTTTTTGTCTAC (DNA, backbone and methylation of C not given here) [DNA 1, reference compound] | no DNA fragments longer than trimer were detected | – | – |
| 5′-GCATAGTTUnUcTTGTCTAC [3b] | – | 2 min | no degradation was detected |
| 5′-GCATAGUcUnnUccUnnUccUnGTCTAC [8b] | – | 4 min | no degradation was detected |
